Experimental data from patent US20140221340A1 (KYOWA HAKKO KIRIN CO., LTD., priority 2011, published 2014).

Target: T1, human CCR10 (Homo sapiens, UniProt P46092)
T1 construct: expressed in transfected cells; host or cells: KJMGER8 cell (cell line derived from Namalwa cell); expression induced with 10 nmol/L β-estradiol
T1 sequence (P46092 1-362): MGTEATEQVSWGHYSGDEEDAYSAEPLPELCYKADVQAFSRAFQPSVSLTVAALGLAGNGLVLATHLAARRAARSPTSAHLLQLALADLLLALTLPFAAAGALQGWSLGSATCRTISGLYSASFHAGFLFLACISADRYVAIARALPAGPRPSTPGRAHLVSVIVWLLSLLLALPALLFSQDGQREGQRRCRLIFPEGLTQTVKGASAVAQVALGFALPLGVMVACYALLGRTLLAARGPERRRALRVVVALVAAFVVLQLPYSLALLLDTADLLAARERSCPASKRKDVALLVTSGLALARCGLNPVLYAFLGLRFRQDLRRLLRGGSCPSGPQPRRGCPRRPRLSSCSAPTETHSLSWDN
Experiment: Calcium assay of human CCR10 (inhibition of CTACK-induced increase in intracellular calcium ion concentration in hCCR10G16 cells)
Type: cell-based
Details: test compound 100 nmol/L; human recombinant CTACK; hCCR10G16 cells (KJMGER8/Namalwa-derived, Gα16 co-expressed); FLIPR or FDSS; read-out: Inhibitory rate (%) for an increase in calcium ion concentration
Procedure: A CCR10-inducible expression plasmid was produced according to a known method (“Analytical Biochemistry”, 2006, vol. 400, page 163). A DNA encoding human CCR10 was obtained by PCR. Using human chromosomal DNA (100 ng; manufactured by Clontech Laboratories, Inc.) as a template, a synthetic DNA having the sequences shown by SEQ ID NOs: 1 and 2 as a human CCR10 cDNA specific primer, and Pyrobest DNA Polymerase (manufactured by TAKARA SHUZO CO. LTD.) as an enzyme, a DNA encoding human CCR10 was obtained by PCR. As a buffer solution for PCR, the buffer solution attached to the enzyme was diluted 10-fold with deionized water and used. Using Thermal Cycler DNA Engine (manufactured by MJ Research), PCR was performed by 35 cycles of reactions composed of an incubation at 90° C. for 2 min, at 94° C. for 30 seconds, at an anneal temperature of 58° C. for 30 seconds, and at 72° C. for 1 min.
The amplified PCR fragment was cleaved with HindIII and NotI, then a human CCR10 DNA fragment was recovered by an agarose gel electrophoresis method. The fragment was incorporated in between the corresponding restriction enzyme sites (HindIII-NotI) of an inducible expression vector, whereby a human CCR10-inducible expression plasmid were prepared.
Using a primer specific to the sequence of the plasmid (synthetic DNA having the sequences shown by SEQ ID NOs: 3 and 4), the sequence of human CCR10 DNA region was determined. For the determination of the base sequence, DNA sequencer 377 (manufactured by PerkinElmer) and a reaction kit (ABI Prism (registered trade mark) BigDye (registered trade mark) Terminator Cycle Sequencing Ready Reaction kit: manufactured by Applied Biosystems) were used. The sequence of human CCR10 DNA matched with the sequence (NM_016602) registered in GenBank.
Cells for the detection of the signal from human CCR10 by a calcium assay were prepared. Human CCR10-inducible expressing cells whose host cell is KJMGER8 cell (cell line derived from Namalwa cell) were prepared according to a known method (“Analy Biochem”, 2006, vol. 400, page 163). Human CCR10-inducible expression plasmid produced above and Gα16 expression plasmid were co-transfected into KJMGER8 cell by an electroporation method (“Cytotechnology”, 1990, vol. 3, page 133), whereby a signal from human CCR10 could be detected by a calcium assay (hereinafter to be referred to as hCCR10G16 cell). Gα16 expression plasmid was produced by incorporating human Gα16 DNA into expression vector pAMoh (WO03/087366). Induced expression of human CCR10 was performed by cultivating hCCR10G16 cells in the presence of 10 nmol/L β-estradiol (manufactured by Sigma Ltd.) for 24 hr.
Cells expressing human CCR10 induced by the above-mentioned method were suspended in RPMI1640 medium and adjusted to cell density of 1.25×10^6 cells/mL. This mixture was dispensed to a 384 well clear bottom plate (manufactured by Corning Incorporated) at 20 μL/well, and these were incubated at 37° C. for several dozen minutes. A loading buffer prepared according to the protocol attached to FLIPR Calcium 3 assay kit (manufactured by Molecular Device) was dispensed to this plate at 20 μL/well, and the plate was incubated at 37° C. for 60 min. A 33 μmol/L DMSO solution of the test compound was diluted 37-fold with RPMI1640 medium and the resulting solution was added at 5 μL/well, and the mixture was incubated at 37° C. for 30 min. 300 nmol/L human recombinant CTACK (manufactured by R and D Systems) diluted with RPMI1640 medium containing 1 w/v % bovine serum albumin was added at 5 μL/well. Change of the intracellular calcium ion concentration for about 5 min after the addition was measured by FLIPR (manufactured by Molecular Device) or FDSS (manufactured by Hamamatsu Photonics K.K.). The difference between the maximum fluorescence intensity and the minimum fluorescence intensity for 5 min was calculated, and taken as the measurement value (maximum fluorescence intensity−minimum fluorescence intensity). […]

Row | inhibition at 0.1 µM | Compound
1 | > 100% | O=C(NC1CC1)NS(=O)(=O)c1cnn2c(Nc3ccc(F)cc3Cl)c(C(=O)N3CCC(c4ccc(F)cc4)CC3)cnc12 [a-21, 7-(2-Chloro-4-fluorophenylamino)-N-(cyclopropylcarbamoyl)-6-[4-(4-fluorophenyl)piperidine-1-carbonyl]pyrazolo[1,5-a]pyrimidine-3-sulfonamide]
2 | > 100% | CCC(=O)NS(=O)(=O)c1cnn2c(Nc3cc(Cl)ccc3Cl)c(C(=O)N3CCC(c4ccc(F)cc4)CC3)cnc12 [a-22, N-{7-(2,5-Dichlorophenylamino)-6-[4-(4-fluorophenyl)piperidine-1-carbonyl]pyrazolo[1,5-a]pyrimidin-3-ylsulfonyl}propionamide]
3 | 96.7% | CCNC(=O)NS(=O)(=O)c1cnn2c(Nc3cc(Cl)ccc3Cl)c(C(=O)N3CCC(c4ccc(F)cc4)CC3)cnc12 [a-23, 7-(2,5-Dichlorophenylamino)-N-(ethylcarbamoyl)-6-[4-(4-fluorophenyl)piperidine-1-carbonyl]pyrazolo[1,5-a]pyrimidine-3-sulfonamide]
4 | > 100% | CC(=O)NS(=O)(=O)c1cnn2c(Nc3cc(Cl)ccc3Cl)c(C(=O)N3CCC(c4ccc(F)cc4)CC3)cnc12 [a-24, N-{7-(2,5-Dichlorophenylamino)-6-[4-(4-fluorophenyl)piperidine-1-carbonyl]pyrazolo[1,5-a]pyrimidin-3-ylsulfonyl}acetamide]
5 | > 100% | CC1(C(=O)NS(=O)(=O)c2cnn3c(Nc4cc(Cl)ccc4Cl)c(C(=O)N4CCC(c5ccc(F)cc5)CC4)cnc23)COC1 [a-25, N-{7-(2,5-Dichlorophenylamino)-6-[4-(4-fluorophenyl)piperidine-1-carbonyl]pyrazolo[1,5-a]pyrimidin-3-ylsulfonyl}-3-methyloxetane-3-carboxamide]
6 | > 100% | O=CNS(=O)(=O)c1cnn2c(Nc3cc(Cl)ccc3Cl)c(C(=O)N3CCC(c4ccc(F)cc4)CC3)cnc12 [a-26, N-{7-(2,5-Dichlorophenylamino)-6-[4-(4-fluorophenyl)piperidine-1-carbonyl]pyrazolo[1,5-a]pyrimidin-3-ylsulfonyl}formamide]
7 | > 100% | CONS(=O)(=O)c1cnn2c(Nc3cc(Cl)ccc3Cl)c(C(=O)N3CCC(c4ccc(F)cc4)CC3)cnc12 [a-27, 7-(2,5-Dichlorophenylamino)-6-[4-(4-fluorophenyl)piperidine-1-carbonyl]-N-methoxypyrazolo[1,5-a]pyrimidine-3-sulfonamide]
8 | > 100% | CCONS(=O)(=O)c1cnn2c(Nc3cc(Cl)ccc3Cl)c(C(=O)N3CCC(c4ccc(F)cc4)CC3)cnc12 [a-28, 7-(2,5-Dichlorophenylamino)-N-ethoxy-6-[4-(4-fluorophenyl)piperidine-1-carbonyl]-pyrazolo[1,5-a]pyrimidine-3-sulfonamide]
9 | > 100% | CCC(=O)NS(=O)(=O)c1cnn2c(Nc3cc(C(F)(F)F)ccc3Cl)c(C(=O)N3CCC(c4ccc(F)cc4)CC3)cnc12 [a-29, N-{7-(2-Chloro-5-trifluoromethylphenylamino)-6-[4-(4-fluorophenyl)piperidine-1-carbonyl]pyrazolo[1,5-a]pyrimidin-3-ylsulfonyl}propionamide]
10 | > 100% | CCNC(=O)NS(=O)(=O)c1cnn2c(Nc3cc(F)ccc3Cl)c(C(=O)N3CCC(c4ccc(F)cc4)CC3)cnc12 [a-30, 7-(2-Chloro-5-fluorophenylamino)-N-(ethylcarbamoyl)-6-[4-(4-fluorophenyl)piperidine-1-carbonyl]pyrazolo[1,5-a]pyrimidine-3-sulfonamide]
11 | > 100% | CCC(=O)NS(=O)(=O)c1cnn2c(Nc3cc(C)ccc3F)c(C(=O)N3CCC(c4ccc(F)cc4)CC3)cnc12 [a-31, N-{7-(2-Fluoro-5-methylphenylamino)-6-[4-(4-fluorophenyl)piperidine-1-carbonyl]pyrazolo[1,5-a]pyrimidin-3-ylsulfonyl}propionamide]
12 | > 100% | Cc1ccc(F)c(Nc2c(C(=O)N3CCC(c4ccc(F)cc4)CC3)cnc3c(S(=O)(=O)NC(=O)NC4CC4)cnn23)c1 [a-32, 7-(2-Fluoro-5-methylphenylamino)-N-(cyclopropylcarbamoyl)-6-[4-(4-fluorophenyl)piperidine-1-carbonyl]pyrazolo[1,5-a]pyrimidine-3-sulfonamide]
13 | > 100% | CC(=O)NS(=O)(=O)c1cnn2c(Nc3cc(Cl)ccc3F)c(C(=O)N3CCC(c4ccc(F)cc4)CC3)cnc12 [a-33, N-{7-(5-Chloro-2-fluorophenylamino)-6-[4-(4-fluorophenyl)piperidine-1-carbonyl]pyrazolo[1,5-a]pyrimidin-3-ylsulfonyl}acetamide]
14 | > 100% | CCNC(=O)NS(=O)(=O)c1cnn2c(Nc3cc(Cl)ccc3F)c(C(=O)N3CCC(c4ccc(F)cc4)CC3)cnc12 [a-34, 7-(5-Chloro-2-fluorophenylamino)-N-(ethylcarbamoyl)-6-[4-(4-fluorophenyl)piperidine-1-carbonyl]pyrazolo[1,5-a]pyrimidine-3-sulfonamide]
15 | > 100% | CC(=O)NS(=O)(=O)c1cnn2c(Nc3cc(F)ccc3F)c(C(=O)N3CCC(c4ccc(F)cc4)CC3)cnc12 [a-35, N-{7-(2,5-Difluorophenylamino)-6-[4-(4-fluorophenyl)piperidine-1-carbonyl]pyrazolo[1,5-a]pyrimidin-3-ylsulfonyl}acetamide]
16 | > 100% | CCC(=O)NS(=O)(=O)c1cnn2c(Nc3cc(F)ccc3F)c(C(=O)N3CCC(c4ccc(F)cc4)CC3)cnc12 [a-36, N-{7-(2,5-Difluorophenylamino)-6-[4-(4-fluorophenyl)piperidine-1-carbonyl]pyrazolo[1,5-a]pyrimidin-3-ylsulfonyl}propionamide]
17 | > 100% | Cc1ccc(Cl)c(Nc2c(C(=O)N3CCC(c4ccc(F)cc4)CC3)cnc3c(S(=O)(=O)NC(=O)NC4CC4(F)F)cnn23)c1 (stereo not shown) [a-37, 7-(2-Chloro-5-methylphenylamino)-N-(2,2-difluorocyclopropylcarbamoyl)-6-[4-(4-fluorophenyl)piperidine-1-carbonyl]pyrazolo[1,5-a]pyrimidine-3-sulfonamide]
18 | > 100% | CC(=O)NS(=O)(=O)c1cnn2c(Nc3cccc(Cl)c3Cl)c(C(=O)N3CCC(c4ccc(F)cc4)CC3)cnc12 [a-38, N-{7-(2,3-Dichlorophenylamino)-6-[4-(4-fluorophenyl)piperidine-1-carbonyl]pyrazolo[1,5-a]pyrimidin-3-ylsulfonyl}acetamide]
19 | > 100% | CCNC(=O)NS(=O)(=O)c1cnn2c(Nc3ccc(Cl)c(Cl)c3)c(C(=O)N3CCC(c4ccc(F)cc4)CC3)cnc12 [a-39, 7-(3,4-Dichlorophenylamino)-N-(ethylcarbamoyl)-6-[4-(4-fluorophenyl)piperidine-1-carbonyl]pyrazolo[1,5-a]pyrimidine-3-sulfonamide]
